In patent US20250243180A1, “TARGETED PROTEIN DEGRADATION” (Monte Rosa Therapeutics AG, priority 2023, published 2025):
Read-outs that look alike come from different tables or passages of the source.

Key:
NEK7 = NEK7 (Homo sapiens (Human), UniProt Q8TDX7+Q96SW2); assay: NEK7 NanoBiT degradation assay in Cal51 NEK7 NanoBiT cell line; assay type: cell-based; details: Cal51 NEK7 NanoBiT cells, 24 hours; for Dmax: CAL-51
Summary of the method: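 EC50 comes from a 4-parameter fit of control-normalized luminescence. The luminescence reports HiBiT-NEK7 (endogenous knock-in) complemented by stably expressed LgBiT in Cal51 cells after 24 h compound exposure at 37 °C. Final concentrations ran 1 μM to 0.05 nM, with Endurazine substrate present in the medium throughout.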

CRBN-DDB1 = CRBN-DDB1 (Homo sapiens (Human), UniProt Q96SW2); assay: Compound binding to CRBN by HTRF assay
CRBN-DDB1, sequence (Q96SW2 whole entry): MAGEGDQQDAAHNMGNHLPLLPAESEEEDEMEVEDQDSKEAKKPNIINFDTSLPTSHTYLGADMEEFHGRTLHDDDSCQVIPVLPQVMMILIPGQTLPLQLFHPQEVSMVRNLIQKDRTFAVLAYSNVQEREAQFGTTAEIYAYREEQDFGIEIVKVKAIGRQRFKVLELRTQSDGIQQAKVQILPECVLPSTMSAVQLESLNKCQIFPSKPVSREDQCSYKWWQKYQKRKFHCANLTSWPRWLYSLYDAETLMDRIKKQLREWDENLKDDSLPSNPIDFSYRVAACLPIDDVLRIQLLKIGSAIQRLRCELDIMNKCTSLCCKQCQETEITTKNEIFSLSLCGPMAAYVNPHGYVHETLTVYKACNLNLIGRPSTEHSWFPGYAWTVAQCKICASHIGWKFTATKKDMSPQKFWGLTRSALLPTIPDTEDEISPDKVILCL
CRBN-DDB1, sequence (Q16531 whole entry partner): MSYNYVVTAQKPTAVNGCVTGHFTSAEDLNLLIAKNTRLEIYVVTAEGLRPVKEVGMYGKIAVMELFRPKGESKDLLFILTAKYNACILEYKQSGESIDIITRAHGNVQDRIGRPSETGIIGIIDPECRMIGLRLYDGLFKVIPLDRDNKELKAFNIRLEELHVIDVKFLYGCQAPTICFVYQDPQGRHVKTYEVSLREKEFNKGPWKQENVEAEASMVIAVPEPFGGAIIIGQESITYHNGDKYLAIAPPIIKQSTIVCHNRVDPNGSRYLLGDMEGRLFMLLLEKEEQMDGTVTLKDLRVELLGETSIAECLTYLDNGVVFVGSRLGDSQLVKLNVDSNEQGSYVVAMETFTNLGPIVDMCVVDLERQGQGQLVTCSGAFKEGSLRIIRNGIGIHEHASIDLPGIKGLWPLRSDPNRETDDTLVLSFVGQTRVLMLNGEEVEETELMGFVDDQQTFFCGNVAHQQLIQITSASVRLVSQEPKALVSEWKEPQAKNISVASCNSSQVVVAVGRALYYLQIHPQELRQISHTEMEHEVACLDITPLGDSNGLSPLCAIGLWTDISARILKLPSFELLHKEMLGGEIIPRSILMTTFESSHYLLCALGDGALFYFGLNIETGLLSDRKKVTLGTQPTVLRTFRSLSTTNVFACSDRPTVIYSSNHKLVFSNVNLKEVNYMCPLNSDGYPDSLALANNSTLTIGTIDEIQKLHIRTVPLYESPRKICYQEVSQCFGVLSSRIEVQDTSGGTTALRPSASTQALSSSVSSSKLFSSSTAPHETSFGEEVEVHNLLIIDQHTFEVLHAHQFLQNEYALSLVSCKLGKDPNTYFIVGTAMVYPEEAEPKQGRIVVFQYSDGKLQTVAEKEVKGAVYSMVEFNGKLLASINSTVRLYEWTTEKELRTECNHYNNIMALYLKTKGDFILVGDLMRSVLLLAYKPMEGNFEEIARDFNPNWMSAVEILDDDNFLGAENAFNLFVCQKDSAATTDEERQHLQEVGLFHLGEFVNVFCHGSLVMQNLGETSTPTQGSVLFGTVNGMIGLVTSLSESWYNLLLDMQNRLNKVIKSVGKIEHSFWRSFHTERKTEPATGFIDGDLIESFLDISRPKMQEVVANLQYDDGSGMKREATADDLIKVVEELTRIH
Summary of the method: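 Ki calculated via Cheng-Prusoff from geometric-mean EC50 values, after normalizing the HTRF ratio to lenalidomide (active) and DMSO (neutral) controls. Compounds (11 points, 1:3 steps) incubated 30 min at ambient temperature with CRBN-DDB1 2.5 nM, anti-His Tb cryptate and Cy5-thalidomide tracer 100 nM.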

[1] = NEK7 degradation, read-out: NanoBiT Dmax
[2] = NEK7 degradation, read-out: NanoBiT DC50

NEK7, sequence (Q8TDX7 whole entry): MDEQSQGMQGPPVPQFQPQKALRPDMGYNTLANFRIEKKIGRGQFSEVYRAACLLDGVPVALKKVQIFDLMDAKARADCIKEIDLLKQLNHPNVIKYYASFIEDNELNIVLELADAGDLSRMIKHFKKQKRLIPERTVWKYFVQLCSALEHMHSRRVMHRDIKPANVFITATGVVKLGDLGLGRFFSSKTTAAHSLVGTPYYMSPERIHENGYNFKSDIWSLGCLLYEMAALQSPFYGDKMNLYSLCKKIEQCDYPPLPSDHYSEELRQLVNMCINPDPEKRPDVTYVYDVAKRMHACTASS
NEK7, sequence (Q96SW2 whole entry): as the sequence (Q96SW2 whole entry) above
NEK7, sequence (Q16531 2-1140 partner): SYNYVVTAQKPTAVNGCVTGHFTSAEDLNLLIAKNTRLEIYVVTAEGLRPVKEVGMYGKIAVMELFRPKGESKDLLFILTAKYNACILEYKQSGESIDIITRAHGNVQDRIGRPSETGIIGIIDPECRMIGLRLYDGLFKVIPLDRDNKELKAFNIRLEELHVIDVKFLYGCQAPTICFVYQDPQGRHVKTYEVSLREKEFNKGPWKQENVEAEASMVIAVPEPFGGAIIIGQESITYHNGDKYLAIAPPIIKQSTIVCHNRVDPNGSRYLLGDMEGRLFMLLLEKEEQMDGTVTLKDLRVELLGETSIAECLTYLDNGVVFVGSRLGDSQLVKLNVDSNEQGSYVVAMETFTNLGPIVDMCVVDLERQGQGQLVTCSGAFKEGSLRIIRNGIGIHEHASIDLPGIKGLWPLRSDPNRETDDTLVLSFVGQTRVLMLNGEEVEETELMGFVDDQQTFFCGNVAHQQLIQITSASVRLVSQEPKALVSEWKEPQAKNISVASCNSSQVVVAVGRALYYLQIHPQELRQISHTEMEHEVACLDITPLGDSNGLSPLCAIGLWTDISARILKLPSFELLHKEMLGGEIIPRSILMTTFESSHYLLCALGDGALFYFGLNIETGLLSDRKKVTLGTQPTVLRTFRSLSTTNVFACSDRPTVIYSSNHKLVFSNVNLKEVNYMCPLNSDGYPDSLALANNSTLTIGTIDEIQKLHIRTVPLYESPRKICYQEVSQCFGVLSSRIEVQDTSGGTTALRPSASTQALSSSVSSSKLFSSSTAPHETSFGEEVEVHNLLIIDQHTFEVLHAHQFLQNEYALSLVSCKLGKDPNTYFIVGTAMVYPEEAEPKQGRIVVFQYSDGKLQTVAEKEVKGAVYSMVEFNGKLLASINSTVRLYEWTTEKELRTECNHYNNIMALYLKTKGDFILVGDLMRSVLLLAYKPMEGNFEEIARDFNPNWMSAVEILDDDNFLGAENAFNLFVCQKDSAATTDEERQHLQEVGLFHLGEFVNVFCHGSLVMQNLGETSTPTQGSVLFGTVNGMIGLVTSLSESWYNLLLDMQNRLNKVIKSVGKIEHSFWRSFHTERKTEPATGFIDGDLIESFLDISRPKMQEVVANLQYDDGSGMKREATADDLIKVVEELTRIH

Structure (SMILES) | Dmax (NEK7; read-out: NEK7 NanoBiT Dmax) [%] | Dmax (NEK7; [1]) [%] | DC50 (NEK7; read-out: NEK7 NanoBiT DC50) [nM] | DC50 (NEK7; [2]) [nM] | EC50 (CRBN-DDB1) [nM] | EC50 (CRBN-DDB1; HTRF class, Cereblon binding) [nM]
Cc1cncc(C(C)(C)C(=O)NCc2cc(Cl)c(C3CCC(=O)NC3=O)c(Cl)c2)n1 (stereo not drawn) [Compound 176] | 60 | 50 to 75 | 116 | 100 to 1000 | 50 | ≤ 100
Cn1ccc(C2(C(=O)NCc3cc(Cl)c(C4CCC(=O)NC4=O)c(Cl)c3)CCC2)cc1=O (stereo not drawn) [Compound 177] | 85 | > 75 | 53 | ≤ 100 | 550 | 100 to 1000
CC(C)(C(=O)NCc1cc(Cl)c(C2CCC(=O)NC2=O)c(Cl)c1)c1ncc(C2COC2)cn1 (stereo not drawn) [Compound 178] | 66 | 50 to 75 | 95 | ≤ 100 | 290 | 100 to 1000
CC(C)(C(=O)NCc1cc(Cl)c(C2CCC(=O)NC2=O)c(Cl)c1)c1nccc(C(F)F)n1 (stereo not drawn) [Compound 182] | 72 | 50 to 75 | 54 | ≤ 100 | 200 | 100 to 1000
COCc1cnc(C(C)(C)C(=O)NCc2cc(Cl)c(C3CCC(=O)NC3=O)c(Cl)c2)nc1 (stereo not drawn) [Compound 183] | 71 | 50 to 75 | 56 | ≤ 100 | 370 | 100 to 1000
CC(C)(C(=O)NCc1cc(Cl)c(C2CCC(=O)NC2=O)c(Cl)c1)c1ccc2ncoc2n1 (stereo not drawn) [Compound 184] | 95 | > 75 | 3 | ≤ 100 | 180 | 100 to 1000
CC(C)(C(=O)NCc1cc(Cl)c(C2CCC(=O)NC2=O)c(Cl)c1)c1cc(C2CC2)on1 (stereo not drawn) [Compound 185] | 83 | > 75 | 15 | ≤ 100 | 220 | 100 to 1000
CC(C)(C(=O)NCc1cc(Cl)c(C2CCC(=O)NC2=O)c(Cl)c1)c1ncc(CC(F)F)cn1 (stereo not drawn) [Compound 186] | 65 | 50 to 75 | 90 | ≤ 100 | 90 | ≤ 100
CC(F)(F)c1cnc(C(C)(C)C(=O)NCc2cc(Cl)c(C3CCC(=O)NC3=O)c(Cl)c2)nc1 (stereo not drawn) [Compound 187] | 93 | > 75 | 4 | ≤ 100 | 100 | 100 to 1000
CC(C)(C(=O)NCc1cc(Cl)c(C2CCC(=O)NC2=O)c(Cl)c1)c1ncc(OC(F)F)cn1 (stereo not drawn) [Compound 188] | 93 | > 75 | 4 | ≤ 100 | 80 | ≤ 100
COc1cnc(C(C)(C)C(=O)NCc2cc(Cl)c(C3CCC(=O)NC3=O)c(Cl)c2)nc1 (stereo not drawn) [Compound 189] | 94 | > 75 | 4 | ≤ 100 | 70 | ≤ 100
CC(C)(C(=O)NCc1cc(Cl)c(C2CCC(=O)NC2=O)c(Cl)c1)c1cc2cccnc2cn1 (stereo not drawn) [Compound 190] | 90 | > 75 | 6 | ≤ 100 | 90 | ≤ 100
CC(C)(C(=O)NCc1cc(Cl)c(C2CCC(=O)NC2=O)c(Cl)c1)c1ccc(C(F)(F)F)nn1 (stereo not drawn) [Compound 191] | 85 | > 75 | 13 | ≤ 100 | 170 | 100 to 1000
CC(C)(C(=O)NCc1cc(Cl)c(C2CCC(=O)NC2=O)c(Cl)c1)c1nc(C2CC2)co1 (stereo not drawn) [Compound 193] | 87 | > 75 | 10 | ≤ 100 | 80 | ≤ 100
CC(C)(C(=O)NCc1cc(Cl)c(C2CCC(=O)NC2=O)c(Cl)c1)c1ncc(Cl)cn1 (stereo not drawn) [Compound 194] | 96 | > 75 | 1 | ≤ 100 | 120 | 100 to 1000
